Earlier results in patent US20150246061A1, “VITAMIN D ANALOGUES FOR THE TREATMENT OF A NEUROLOGICAL DISORDER” (CELUS PHARMACEUTICALS, INC., priority 2012, published 2015).

Conditions: adult humans, longer treatment periods

daily dose up to which elocalcitol has been shown to be safe: ≤ 150 µg
SMILES: C=C1/C(=C\C=C2/CCC[C@]3(C)C([C@@H](C)C/C=C/C(O)(CC)CC)=CC[C@@H]23)C[C@@H](O)C[C@@H]1F [Elocalcitol, elocalcitol]
